Results as given in ChEMBL document CHEMBL1138190, “Synthesis and antibacterial activity of novel C12 vinyl ketolides” (J Med Chem, 2006).
In brackets after ≈: the same amount, converted by molar mass. Activity calls are given as the source filed them. The calls are words filed in the database; no cut-off is given here.

Columns and labels:
Streptococcus pneumoniae [1] = assay: Antibacterial activity against Streptococcus pneumoniae Mef 6966; type: functional
Streptococcus pneumoniae [2] = assay: Antibacterial activity against Streptococcus pneumoniae Mef 1566; type: functional
[3] = Oral bioavailability in Sprague-Dawley rat at 100 mg/kg, po; type: ADME, organism-based; settings: in vivo
Streptococcus pneumoniae [4] = assay: Antibacterial activity against Streptococcus pneumoniae Erm S 4085; type: functional
Streptococcus pneumoniae [5] = assay: Antibacterial activity against Streptococcus pneumoniae 280-962; type: functional
Streptococcus pneumoniae [6] = assay: Antibacterial activity against Streptococcus pneumoniae 49619; type: functional
Streptococcus pneumoniae [7] = assay: Antibacterial activity against Streptococcus pneumoniae Erm S 4297; type: functional
Rattus norvegicus [8] = assay: Efficacy against Streptococcus pneumoniae Erm in Sprague-Dawley rat lung infection model at 100 mg/kg; type: functional, organism-based; parameters: dose 100 mg/kg
Streptococcus pneumoniae [9] = assay: Antibacterial activity against Streptococcus pneumoniae Erm 2218; type: functional
[10] = Lung-to-plasma AUC ratio in Sprague-Dawley rat at 5 mg/kg, iv; type: ADME, organism-based; parameters: dose 5 mg/kg, route intravenous; settings: lung and plasma
Streptococcus pneumoniae [11] = assay: Antibacterial activity against Streptococcus pneumoniae Erm 6849; type: functional
Streptococcus pneumoniae [12] = assay: Antibacterial activity against Streptococcus pneumoniae Erm 8919; type: functional
Streptococcus pneumoniae [13] = assay: Antibacterial activity against Streptococcus pneumoniae Mef 3449; type: functional
Enterococcus faecalis [14] = assay: Antibacterial activity against Enterococcus faecalis 29212; type: functional
Streptococcus pneumoniae [15] = assay: Antibacterial activity against Streptococcus pneumoniae Erm 8339; type: functional
[16] = Clearance in Sprague-Dawley rat at 5 mg/kg, iv and 15 mg/kg, po; type: ADME, organism-based; settings: in vivo
Streptococcus pneumoniae [17] = assay: Antibacterial activity against Streptococcus pneumoniae Mef 983; type: functional
Streptococcus pneumoniae [18] = assay: Antibacterial activity against Streptococcus pneumoniae Mef 5649; type: functional
Streptococcus pneumoniae [19] = assay: Antibacterial activity against Streptococcus pneumoniae Erm 6396; type: functional
Streptococcus pneumoniae [20] = assay: Antibacterial activity against Streptococcus pneumoniae Mef 4126; type: functional
Streptococcus pneumoniae [21] = assay: Antibacterial activity against Streptococcus pneumoniae Erm 5415; type: functional
Streptococcus pneumoniae [22] = assay: Antibacterial activity against Streptococcus pneumoniae Mef 2382; type: functional
Staphylococcus aureus [23] = assay: Antibacterial activity against Staphylococcus aureus 29213; type: functional
Streptococcus pneumoniae [24] = assay: Antibacterial activity against Streptococcus pneumoniae Erm 5590; type: functional
Streptococcus pneumoniae [25] = assay: Antibacterial activity against Streptococcus pneumoniae Mef S 3427; type: functional
Streptococcus pneumoniae [26] = assay: Antibacterial activity against Streptococcus pneumoniae Erm 8947; type: functional
Streptococcus pneumoniae [27] = assay: Antibacterial activity against Streptococcus pneumoniae Erm 867; type: functional
Streptococcus pneumoniae [28] = assay: Antibacterial activity against Streptococcus pneumoniae Mef 953; type: functional
[29] = system: Staphylococcus epidermidis; assay: Antibacterial activity against Staphylococcus epidermidis f50654; type: functional
Streptococcus pneumoniae [30] = assay: Antibacterial activity against Streptococcus pneumoniae Mef 2880; type: functional
Streptococcus pneumoniae [31] = assay: Antibacterial activity against Streptococcus pneumoniae Erm 8257; type: functional
Streptococcus pneumoniae [32] = assay: Antibacterial activity against Streptococcus pneumoniae Erm 5554; type: functional
Streptococcus pneumoniae [33] = assay: Antibacterial activity against Streptococcus pneumoniae Erm 10279; type: functional
Streptococcus pneumoniae [34] = assay: Antibacterial activity against Streptococcus pneumoniae Mef 9142; type: functional
Streptococcus pneumoniae [35] = assay: Antibacterial activity against Streptococcus pneumoniae 297-749; type: functional
Haemophilus influenzae [36] = assay: Antibacterial activity against Haemophilus influenzae 49247; type: functional
Rattus norvegicus [37] = assay: Efficacy against Haemophilus influenzae in Sprague-Dawley rat lung infection model at 100 mg/kg; type: functional, organism-based; parameters: dose 100 mg/kg
[38] = Lung half life in Sprague-Dawley rat at 15 mg/kg, po; type: ADME, organism-based; parameters: dose 15 mg/kg, route oral
Staphylococcus aureus [39] = assay: Antibacterial activity against Staphylococcus aureus 33591; type: functional
Streptococcus pyogenes = assay: Antibacterial activity against Streptococcus pyogenes 8668; type: functional
Streptococcus pneumoniae [40] = assay: Antibacterial activity against Streptococcus pneumoniae Mef 10095; type: functional
Streptococcus pneumoniae [41] = assay: Antibacterial activity against Streptococcus pneumoniae Erm 5399; type: functional
Enterococcus faecalis [42] = assay: Antibacterial activity against Enterococcus faecalis bc11148-2; type: functional
Streptococcus pneumoniae [43] = assay: Antibacterial activity against Streptococcus pneumoniae Erm 3120; type: functional
Streptococcus pneumoniae [44] = assay: Antibacterial activity against Streptococcus pneumoniae Erm 4290; type: functional
Streptococcus pneumoniae [45] = assay: Antibacterial activity against Streptococcus pneumoniae Mef 4331; type: functional
Streptococcus pneumoniae [46] = assay: Antibacterial activity against Streptococcus pneumoniae Mef S 3435; type: functional
Streptococcus pneumoniae [47] = assay: Antibacterial activity against Streptococcus pneumoniae Erm 7985; type: functional
Streptococcus pneumoniae [48] = assay: Antibacterial activity against Streptococcus pneumoniae Mef 1556; type: functional
Rattus norvegicus [49] = assay: Efficacy against Streptococcus pneumoniae Mef in Sprague-Dawley rat lung infection model at 100 mg/kg; type: functional, organism-based; parameters: dose 100 mg/kg
[50] = system: Staphylococcus epidermidis; assay: Antibacterial activity against Staphylococcus epidermidis 14990; type: functional
Streptococcus pneumoniae [51] = assay: Antibacterial activity against Streptococcus pneumoniae Erm 6388; type: functional
Streptococcus pneumoniae [52] = assay: Antibacterial activity against Streptococcus pneumoniae Mef 3855; type: functional
Haemophilus influenzae [53] = assay: Antibacterial activity against Haemophilus influenzae 2762; type: functional
Streptococcus pneumoniae [54] = assay: Antibacterial activity against Streptococcus pneumoniae Erm 5354; type: functional
[55] = Volume of distribution in Sprague-Dawley rat at 5 mg/kg, iv and 15 mg/kg, po; type: ADME, organism-based; settings: in vivo, read-out: Vdss
Streptococcus pneumoniae [56] = assay: Antibacterial activity against Streptococcus pneumoniae Mef 5654; type: functional
Streptococcus pneumoniae [57] = assay: Antibacterial activity against Streptococcus pneumoniae Erm 4589; type: functional
Streptococcus pneumoniae [58] = assay: Antibacterial activity against Streptococcus pneumoniae Mef 41; type: functional
Streptococcus pneumoniae [59] = assay: Antibacterial activity against Streptococcus pneumoniae Mef 1790; type: functional
Streptococcus pneumoniae [60] = assay: Antibacterial activity against Streptococcus pneumoniae Mef 9959; type: functional

CC[C@H]1OC(=O)[C@H](C)C(=O)[C@H](C)[C@@H](O[C@@H]2O[C@H](C)C[C@H](N(C)C)[C@H]2O)[C@](C)(OC)C[C@@H](C)C(=O)[C@H](C)[C@H]2N(CCCCn3cnc(-c4cccnc4)c3)C(=O)O[C@]12C [TELITHROMYCIN]
MIC (Streptococcus pneumoniae [1]): 0.25 µg/mL (≈ 0.308 µM)
MIC (Streptococcus pneumoniae [2]): 0.5 µg/mL (≈ 0.616 µM)
bioavailability [3]: 84%
MIC (Streptococcus pneumoniae [4]): ≤ 0.013 µg/mL
MIC (Streptococcus pneumoniae [5]): ≤ 0.05 µg/mL
MIC (Streptococcus pneumoniae [6]): ≤ 0.05 µg/mL
MIC (Streptococcus pneumoniae [7]): 0.1 µg/mL (≈ 0.123 µM)
Activity (Rattus norvegicus [8]): inactive
MIC (Streptococcus pneumoniae [9]): 0.025 µg/mL (≈ 0.0308 µM)
Kp [10]: 16
MIC (Streptococcus pneumoniae [11]): 0.2 µg/mL (≈ 0.246 µM)
MIC (Streptococcus pneumoniae [12]): 0.025 µg/mL (≈ 0.0308 µM)
MIC (Streptococcus pneumoniae [13]): 0.25 µg/mL (≈ 0.308 µM)
MIC (Enterococcus faecalis [14]): ≤ 0.05 µg/mL
MIC (Streptococcus pneumoniae [15]): 0.78 µg/mL (≈ 0.961 µM)
clearance [16]: 100 mL/min/kg
MIC (Streptococcus pneumoniae [17]): 0.5 µg/mL (≈ 0.616 µM)
MIC (Streptococcus pneumoniae [18]): 0.5 µg/mL (≈ 0.616 µM)
MIC (Streptococcus pneumoniae [19]): 0.1 µg/mL (≈ 0.123 µM)
MIC (Streptococcus pneumoniae [20]): 0.06 µg/mL (≈ 0.0739 µM)
MIC (Streptococcus pneumoniae [21]): 0.025 µg/mL (≈ 0.0308 µM)
MIC (Streptococcus pneumoniae [22]): 0.25 µg/mL (≈ 0.308 µM)
MIC (Staphylococcus aureus [23]): 0.1 µg/mL (≈ 0.123 µM)
MIC (Streptococcus pneumoniae [24]): ≤ 0.013 µg/mL
MIC (Streptococcus pneumoniae [25]): 0.13 µg/mL (≈ 0.16 µM)
MIC (Streptococcus pneumoniae [26]): 0.1 µg/mL (≈ 0.123 µM)
MIC (Streptococcus pneumoniae [27]): 0.025 µg/mL (≈ 0.0308 µM)
MIC (Streptococcus pneumoniae [28]): 0.13 µg/mL (≈ 0.16 µM)
MIC [29]: 0.1 µg/mL (≈ 0.123 µM)
MIC (Streptococcus pneumoniae [30]): 0.13 µg/mL (≈ 0.16 µM)
MIC (Streptococcus pneumoniae [31]): ≤ 0.013 µg/mL
MIC (Streptococcus pneumoniae [32]): 0.2 µg/mL (≈ 0.246 µM)
MIC (Streptococcus pneumoniae [33]): 0.025 µg/mL (≈ 0.0308 µM)
MIC (Streptococcus pneumoniae [34]): 0.5 µg/mL (≈ 0.616 µM)
MIC (Streptococcus pneumoniae [35]): ≤ 0.05 µg/mL
MIC (Haemophilus influenzae [36]): 3.13 µg/mL (≈ 3.85 µM)
Activity (Rattus norvegicus [37]): inactive
half-life [38]: 1.3 h
MIC (Staphylococcus aureus [39]): > 50 µg/mL
MIC (Streptococcus pyogenes): ≤ 0.05 µg/mL
MIC (Streptococcus pneumoniae [40]): 0.06 µg/mL (≈ 0.0739 µM)
MIC (Streptococcus pneumoniae [41]): ≤ 0.013 µg/mL
MIC (Enterococcus faecalis [42]): 0.4 µg/mL (≈ 0.493 µM)
MIC (Streptococcus pneumoniae [43]): 0.1 µg/mL (≈ 0.123 µM)
MIC (Streptococcus pneumoniae [44]): ≤ 0.013 µg/mL
MIC (Streptococcus pneumoniae [45]): 1 µg/mL (≈ 1.23 µM)
MIC (Streptococcus pneumoniae [46]): 0.06 µg/mL (≈ 0.0739 µM)
MIC (Streptococcus pneumoniae [47]): ≤ 0.013 µg/mL
MIC (Streptococcus pneumoniae [48]): 0.13 µg/mL (≈ 0.16 µM)
Activity (Rattus norvegicus [49]): inactive
MIC [50]: 0.1 µg/mL (≈ 0.123 µM)
MIC (Streptococcus pneumoniae [51]): 0.78 µg/mL (≈ 0.961 µM)
MIC (Streptococcus pneumoniae [52]): 0.25 µg/mL (≈ 0.308 µM)
MIC (Haemophilus influenzae [53]): 0.4 µg/mL (≈ 0.493 µM)
MIC (Streptococcus pneumoniae [54]): 0.025 µg/mL (≈ 0.0308 µM)
Vd [55]: 5 L/kg
MIC (Streptococcus pneumoniae [56]): 0.5 µg/mL (≈ 0.616 µM)
MIC (Streptococcus pneumoniae [57]): 0.025 µg/mL (≈ 0.0308 µM)
MIC (Streptococcus pneumoniae [58]): 0.13 µg/mL (≈ 0.16 µM)
MIC (Streptococcus pneumoniae [59]): 0.5 µg/mL (≈ 0.616 µM)
MIC (Streptococcus pneumoniae [60]): 0.25 µg/mL (≈ 0.308 µM)
